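Following 48 hours of exposure in 96-well plates, responses at five concentrations were used to interpolate endpoints linearly. Here, GI50 denotes the concentration required for 50% inhibition of growth. TGI marks complete inhibition of growth.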
Tests used:
Assay in all cases: DTP human tumour cell line panel, 48 h
[1] = test system: NCI-H460 lung
[2] = test system: SN12C renal
[3] = test system: PC-3 prostate
[4] = test system: NCI/ADR-RES ovarian
[5] = test system: IGROV1 ovarian
[6] = test system: U251 CNS
[7] = test system: RXF 393 renal
[8] = test system: OVCAR-3 ovarian
[9] = test system: CCRF-CEM leukemia
[10] = test system: NCI-H522 lung
[11] = test system: SK-OV-3 ovarian
[12] = test system: TK-10 renal
[13] = test system: MDA-MB-435
[14] = test system: SF-295 CNS
[15] = test system: OVCAR-5 ovarian
[16] = test system: RPMI-8226 leukemia
[17] = test system: HCT-116 colon
[18] = test system: SW-620 colon
[19] = test system: OVCAR-8 ovarian
[20] = test system: SNB-19 CNS
[21] = test system: BT-549 breast
[22] = test system: A549 NSCLC
[23] = test system: OVCAR-4 ovarian
[24] = test system: 786-0 renal
[25] = test system: EKVX NSCLC
[26] = test system: MCF7 breast
[27] = test system: NCI-H23 lung
[28] = test system: K-562 leukemia
[29] = test system: HOP-92 NSCLC
[30] = test system: HCC-2998 colon
[31] = test system: M14 melanoma
[32] = test system: COLO 205 colon
[33] = test system: HCT-15 colon
[34] = test system: T-47D breast
[35] = test system: SF-539 CNS
[36] = test system: DU-145 prostate
[37] = test system: ACHN renal
[38] = test system: HL-60(TB) leukemia
[39] = test system: HOP-62 NSCLC
[40] = test system: SR leukemia
[41] = test system: HT29 colon
[42] = test system: UACC-62 melanoma
[43] = test system: MOLT-4 leukemia
[44] = test system: UO-31 renal
[45] = test system: HS 578T breast
[46] = test system: SK-MEL-28 melanoma
[47] = test system: SF-268 CNS
[48] = test system: CAKI-1 renal
[49] = test system: KM12 colon
[50] = test system: A498 renal
[51] = test system: LOX IMVI melanoma
[52] = test system: SK-MEL-5 melanoma
[53] = test system: NCI-H226 lung
[54] = test system: MALME-3M melanoma
[55] = test system: SK-MEL-2 melanoma
[56] = test system: MDA-MB-231 breast

In the case of COc1ccc(-c2ccc(C3CC(c4ccccc4)=NN3)o2)c([N+](=O)[O-])c1 (stereo not drawn), the GI50 [1] is reported as 36.5 µM, the TGI [1] is reported as over 100 µM and the GI50 [2] is reported as 56.4 µM. It also gave a TGI [2] of over 100 µM, a GI50 [3] of 37.3 µM and a TGI [3] of over 100 µM. The GI50 [4] was 33.9 µM, the TGI [4] was over 100 µM and the GI50 [5] was over 100 µM. The TGI [5] was over 100 µM, the GI50 [6] was 57.3 µM and the TGI [6] was over 100 µM. For the same compound, the GI50 [7] was 40 µM, the TGI [7] was over 100 µM and the GI50 [8] was 29.8 µM. It also gave a TGI [8] of over 100 µM, a GI50 [9] of 23.2 µM and a TGI [9] of 72.2 µM. It also gave a GI50 [10] of 58.4 µM, a TGI [10] of over 100 µM and a GI50 [11] of 42.5 µM. For the same compound, the TGI [11] was over 100 µM, the GI50 [12] was 22.1 µM and the TGI [12] was 63.8 µM. For the same compound, the GI50 [13] was 32.4 µM, the TGI [13] was over 100 µM and the GI50 [14] was 28.6 µM. The TGI [14] was over 100 µM, the GI50 [15] was over 100 µM and the TGI [15] was over 100 µM. For the same compound, the GI50 [16] was 31 µM, the TGI [16] was over 100 µM and the GI50 [17] was 33.5 µM. The TGI [17] was over 100 µM, the GI50 [18] was 47.5 µM and the TGI [18] was over 100 µM. It also gave a GI50 [19] of 51.2 µM, a TGI [19] of over 100 µM and a GI50 [20] of 86.2 µM. For the same compound, the TGI [20] was over 100 µM, the GI50 [21] was 47.4 µM and the TGI [21] was over 100 µM. It also gave a GI50 [22] of 47.1 µM, a TGI [22] of over 100 µM and a GI50 [23] of 43.5 µM. It also gave a TGI [23] of over 100 µM, a GI50 [24] of 60.6 µM and a TGI [24] of over 100 µM. For the same compound, the GI50 [25] was 49.2 µM, the TGI [25] was over 100 µM and the GI50 [26] was 31.8 µM. For the same compound, the TGI [26] was over 100 µM, the GI50 [27] was 39.1 µM and the TGI [27] was over 100 µM. The GI50 [28] was 34.5 µM, the TGI [28] was over 100 µM and the GI50 [29] was 24.8 µM. It also gave a TGI [29] of 68.2 µM, a GI50 [30] of 25.5 µM and a TGI [30] of 58.5 µM. The GI50 [31] was 51.9 µM, the TGI [31] was over 100 µM and the GI50 [32] was 52.9 µM. The TGI [32] was over 100 µM, the GI50 [33] was 37.4 µM and the TGI [33] was over 100 µM. It also gave a GI50 [34] of over 100 µM, a TGI [34] of over 100 µM and a GI50 [35] of 64.7 µM. For the same compound, the TGI [35] was over 100 µM, the GI50 [36] was 82.6 µM and the TGI [36] was over 100 µM. It also gave a GI50 [37] of 57.7 µM, a TGI [37] of over 100 µM and a GI50 [38] of 24.9 µM. For the same compound, the TGI [38] was 64.8 µM, the GI50 [39] was 52.7 µM and the TGI [39] was over 100 µM. It also gave a GI50 [40] of 30.3 µM, a TGI [40] of 87.9 µM and a GI50 [41] of 51.3 µM. The TGI [41] was over 100 µM, the GI50 [42] was 67.7 µM and the TGI [42] was over 100 µM. The GI50 [43] was 22.9 µM, the TGI [43] was 72.9 µM and the GI50 [44] was over 100 µM. For the same compound, the TGI [44] was over 100 µM, the GI50 [45] was 43 µM and the TGI [45] was over 100 µM. It also gave a GI50 [46] of over 100 µM, a TGI [46] of over 100 µM and a GI50 [47] of 37.8 µM. The TGI [47] was over 100 µM, the GI50 [48] was 34.4 µM and the TGI [48] was over 100 µM. The GI50 [49] was 27.3 µM, the TGI [49] was over 100 µM and the GI50 [50] was 68.4 µM. It also gave a TGI [50] of over 100 µM.
COc1cc2c(cc1OCCNC(=O)/C=C1\C[C@H]3C=Nc4cc(OCc5ccccc5)c(OC)cc4C(=O)N3C1)N=C[C@@H]1CCCN1C2=O gave a GI50 [1] of 13.6 µM, a TGI [1] of 30.6 µM and a GI50 [51] of 2.75 µM. It also gave a TGI [51] of 7.31 µM, a GI50 [2] of 2.68 µM and a TGI [2] of 15.8 µM. For the same compound, the GI50 [3] was 3.53 µM, the TGI [3] was 33.7 µM and the GI50 [4] was over 100 µM. For the same compound, the TGI [4] was over 100 µM, the GI50 [5] was 1.42 µM and the TGI [5] was 5.64 µM. For the same compound, the GI50 [6] was 2.82 µM, the TGI [6] was 8.35 µM and the GI50 [7] was 1.98 µM. The TGI [7] was 4.98 µM, the GI50 [8] was 2.19 µM and the TGI [8] was 5.49 µM. It also gave a GI50 [52] of 1.3 µM, a TGI [52] of 20.8 µM and a GI50 [53] of 32 µM. The TGI [53] was 60.1 µM, the GI50 [10] was 1.62 µM and the TGI [10] was 3.88 µM. It also gave a GI50 [11] of 25.1 µM, a TGI [11] of 73.1 µM and a GI50 [12] of 7.07 µM. It also gave a TGI [12] of 36.7 µM, a GI50 [13] of 2.97 µM and a TGI [13] of 9.79 µM. It also gave a GI50 [14] of 18.3 µM, a TGI [14] of over 100 µM and a GI50 [15] of 4.07 µM. It also gave a TGI [15] of 26.3 µM, a GI50 [16] of 1.18 µM and a TGI [16] of 2.74 µM. The GI50 [17] was 2.93 µM, the TGI [17] was 11.9 µM and the GI50 [18] was 5.36 µM. The TGI [18] was 24.7 µM, the GI50 [19] was 3.89 µM and the TGI [19] was 23.1 µM. For the same compound, the GI50 [20] was 8.62 µM, the TGI [20] was over 100 µM and the GI50 [21] was 17 µM. For the same compound, the TGI [21] was over 100 µM, the GI50 [22] was 22.3 µM and the TGI [22] was 52.3 µM. The GI50 [23] was 19.7 µM, the TGI [23] was 65.5 µM and the GI50 [24] was 3.68 µM. The TGI [24] was 16.8 µM, the GI50 [54] was 2.2 µM and the TGI [54] was 6.69 µM. For the same compound, the GI50 [55] was 1.58 µM, the TGI [55] was 3.56 µM and the GI50 [56] was 5.11 µM. It also gave a TGI [56] of 23.4 µM, a GI50 [25] of 36.8 µM and a TGI [25] of 81.6 µM. The GI50 [26] was 2.62 µM, the TGI [26] was 9.2 µM and the GI50 [27] was 9.26 µM. For the same compound, the TGI [27] was 27 µM, the GI50 [28] was 2.78 µM and the TGI [28] was 13.6 µM. It also gave a GI50 [31] of 10.4 µM, a TGI [31] of 28.8 µM and a GI50 [32] of 14.9 µM. For the same compound, the TGI [32] was 68.5 µM, the GI50 [33] was 37.4 µM and the TGI [33] was over 100 µM. For the same compound, the GI50 [34] was 2.77 µM, the TGI [34] was 55.9 µM and the GI50 [36] was 19.4 µM. The TGI [36] was 37.3 µM, the GI50 [37] was 25.8 µM and the TGI [37] was 71.5 µM. The GI50 [39] was 4.27 µM, the TGI [39] was 23.6 µM and the GI50 [40] was 1.46 µM. For the same compound, the TGI [40] was 4.56 µM, the GI50 [41] was 20.3 µM and the TGI [41] was over 100 µM. For the same compound, the GI50 [42] was 2.65 µM, the TGI [42] was 9.92 µM and the GI50 [44] was 22.9 µM. It also gave a TGI [44] of 66.1 µM, a GI50 [45] of 5.7 µM and a TGI [45] of 25.2 µM. It also gave a GI50 [46] of 18.1 µM, a TGI [46] of 46.3 µM and a GI50 [47] of 2.18 µM. It also gave a TGI [47] of 7.03 µM, a GI50 [48] of 32.3 µM and a TGI [48] of over 100 µM. For the same compound, the GI50 [49] was 9.31 µM and the TGI [49] was 28.8 µM.

Reference: PubChem BioAssay (NCI)
